US20230348506A1, “MACROCYCLIC PANTETHEINE DERIVATIVES AND USES THEREOF” (VectivBio Comet AG, priority 2019, published 2023)

Columns and labels:
[1] = system: Methylmalonic Acidemia (MMA) Primary fibroblasts (GM01673, Coriell Institute for Medical Research); experiment: Measurement of total GSH and GSSG dimer (GSH/GSSG ratio); assay type: cell-based, human; settings: 10 μM compound for 2 hours
Procedure: Primary adherent fibroblasts were cultured in minimum essential medium (MEM) (Gibco, 25030081) supplemented with 2 mM L-Glutamine (Gibco, 25030081), 15% fetal bovine serum (FBS) (Gibco, 26400044) and 1% penicillin/streptomycin (Gibco, 5140122) at 37° C. and 5% CO2. Cells were collected for either passaging or experiment at ˜70-80% confluence. Cells were obtained by trypsinization and seeded in a white cell culture microplates (Thermo Fisher Scientific, 152028) for luminescent measurement. Cells were obtained by trypsinization and […] were seeded and allowed to adhere for 16-18 hours to have confluency around 70-80% in the cell well with culture media. After 24 hours prior to measurements (37° C, 5% CO2) media was changed to Dulbecco's Modified Eagle Medium (DMEM, Agilent Seahorse cat #103575-100) with the appropriate supplements (1 mM glucose, 2 mM L-glutamine, 1 mM pyruvate, 10% FBS).
Assay was performed according to manufacturer instructions (Promega, V6612). At the end of appropriate time point, the assay requires one plate for total measurement of GSH and one plate for GSSG. For every assay a 11-point standard curve is prepared ranging from 8 μM to 0.013 μM. […] Finally, 100 μl/well of Luciferin Detection reagent were added and incubated for 15 minutes before the chemiluminescence was detected. Free GSH/GSSG ratio was calculated as (Total GSH-GSSH)/(GSSG/2). […]

[2] = system: primary adherent fibroblast cell line derived from an Methylmalonic Acidemia (MMA) patient (GM01673, Coriell Institute for Medical Research); experiment: Mitochondrial respiration (Seahorse XFe96, OCR), Spare Capacity AUC; assay type: cell-based, human; settings: 10 μM compound, 1 μM FCCP for 20 cycles, relative to vehicle
Procedure: The effect of the compounds of the present disclosure on mitochondrial respiration was measured with a XFe96 Extracellular Flux Analyzer (Seahorse Bioscience, Agilent Technologies) and Oxygen consumption Rate (OCR) and Extracellular acidification rate (ECAR) determined.
Cell culture and treatments. Primary adherent fibroblasts were cultured in minimum essential medium (MEM) (Gibco, 25030081) supplemented with 2 mM L-Glutamine (Gibco, 25030081), 15% fetal bovine serum (FBS) (Gibco, 26400044) and 1% penicillin/streptomycin (Gibco, 5140122) at 37° C. and 5% CO2. Cells were collected for either passaging or experiment at ˜70-80% confluence. Cells were obtained by trypsinization and seeded at 10,000 cells/well in cell culture microplates (Seahorse Bioscience, 101085-004) and allowed to adhere for 48 hours in culture media. […]
Determining the optimized cell density and concentrations for stress test, such as FCCP, were achieved through methods well known to those of skill in the art. After baseline measurements of OCR, cells were challenged with compounds of the present disclosure at different concentrations (10 to 50 μM) or vehicle (DMSO, 0.1%) and a post-compound baseline was recorded. OCR was measured after sequentially adding to each well 1.5 μg/ml oligomycin (inhibitor of ATP synthase Sigma-Aldrich, 753531), then maximal OCR was determined with carbonyl cyanide 4-(trifluoromethoxy) phenylhydrazone (FCCP, Sigma-Aldrich, C2920), (uncoupler of oxidative phosphorylation) and 1.0 μM of rotenone (Sigma-Aldrich, R8875) plus antimycin A (Sigma-Aldrich, A8674) (inhibitors of mitochondrial complex I and III) for determination of rotenone-antimycin insensitive respiration together with Hoechst for nuclear staining in situ when normalized to cell counts. After the analysis and nuclear staining, the XFp microplate was transferred to the Cytation 5, and the nuclear images were captured, the individual nuclei were identified and counted by BioTek Gen5 software. […]

CC1(C)COC(=O)CCC(=O)SCCNC(=O)CCNC(=O)[C@@H]1O [Compound 206, (R)-15-hydroxy-16,16-dimethyl-1-oxa-6-thia-9,13-diazacycloheptadecane-2,5,10,14-tetraone]
increase of the GSH/GSSG ratio [1]: at least 20%
increase of Spare Capacity AUC ([2]; medium with 1 mM glucose): at least 50%
increase of Spare Capacity AUC ([2]; medium with 10 mM glucose, 2 mM glutamine, 1 mM pyruvate): > 10%
